Test results taken from PMC7291858, “An Enhanced Variant Designed From DLP4 Cationic Peptide Against Staphylococcus aureus CVCC 546” (Frontiers in Microbiology, 2020).
Values after ≈ are worked out from the molar mass of the structure shown. Peptide text beside a SMILES is read from it.

Legend:
[1] = system: S. aureus CVCC 546; assay: Time-kill assay; format: cell-based, Staphylococcus aureus; settings: MHB, 10^5 CFU/mL, 37°C, n = 3
Description: Time-kill assay was used to assess the killing rates of S. aureus cells by AMPs in vitro, done by measuring the number of viable bacteria left at various times after exposure to the peptides. […] At different time intervals, a certain sample was taken, serially diluted, and plated on MHA for colonies counting. Cells treated with 2 × MIC DLP4 or vancomycin and left without treatment were used as the positive and blank controls, respectively ([Flamm et al., 2019]).

[2] = system: Gram-negative bacteria; assay: MIC, summary over Gram-negative strains; format: cell-based; settings: E. coli and Salmonella strains of Table 2
Protocol: The minimal inhibitory concentration (MIC) was evaluated by a microtiter plate assay ([Wiegand et al., 2008]). Serial 2-fold dilutions of test peptides were placed into a 96-well plate containing identical bacterial inoculum and incubated at 37°C for 16∼20 h. Vancomycin was used as antibiotic control. The MIC value was defined as the lowest peptide concentration where no visible growth occurred. All tests were made in triplicate.

[3] = system: S. aureus CVCC 546 gDNA; assay: Gel retardation assay of gDNA binding; set-up: species or system Staphylococcus aureus; settings: 10 min incubation, 1% agarose gel, ratios 0-5 (w/w)
Protocol: A gel retardation assay ([Zhao et al., 2019]) was utilized to analyze the binding of peptides to genomic DNA (gDNA) extracted from S. aureus CVCC 546 with TIANamp Bacteria DNA Kit (TIANGEN Biotech Co., Ltd., Beijing). The peptides were incubated for 10 min with gDNA at different ratios of 0–5.0 (w/w) and then loaded on 1% agarose gel for electrophoresis analysis.

[4] = system: Staphylococcus aureus CVCC 546; assay: microbe, parasite or virus in culture; format: cell-based
Procedure, shortened: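 2-fold peptide dilution series, identical inoculum, 37°C, 16∼20 h. MIC = lowest conc. without visible growth. Vancomycin control; triplicate.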

[5] = system: mouse macrophage RAW 264.7; assay: Cytotoxicity, MTT assay; format: cell-based; settings: 256 μg/mL, RAW 264.7, MTT, n = 4
Protocol: The cytotoxicity of peptides toward mouse macrophage RAW 264.7 was evaluated by the MTT assay as described previously ([Wang X. et al., 2018]).

## CC[C@H](C)[C@@H]1NC(=O)[C@@H]2CSSC[C@@H](C(=O)N[C@@H](CCCNC(=N)N)C(=O)N[C@@H](CCCCN)C(=O)O)NC(=O)[C@H](CC(N)=O)NC(=O)[C@@H]3CSSC[C@H](NC(=O)[C@H](C)NC(=O)[C@H](C)NC(=O)[C@H](Cc4c[nH]cn4)NC(=O)CNC(=O)[C@H](C(C)C)NC(=O)[C@H](CCCCN)NC(=O)[C@H](Cc4ccccc4)NC(=O)[C@@H]4CCCN4C(=O)[C@H](CO)NC(=O)[C@H](CC(C)C)NC(=O)[C@H](CC(C)C)NC(=O)[C@H](CC(=O)O)NC(=O)[C@@H](NC(=O)[C@@H](NC(=O)[C@H](C)N)[C@@H](C)O)CSSC[C@H](NC(=O)[C@H](Cc4c[nH]c5ccccc45)NC(=O)CNC(=O)CNC(=O)[C@H](CCCNC(=N)N)NC(=O)[C@H](CCCCN)NC(=O)CNC(=O)[C@H](CCCNC(=N)N)NC(=O)[C@H](C)NC1=O)C(=O)N[C@@H](CC(=O)O)C(=O)NCC(=O)N[C@@H](CCCNC(=N)N)C(=O)N[C@@H](C)C(=O)N[C@@H](C(C)C)C(=O)N3)C(=O)N[C@@H](C)C(=O)N[C@@H](C)C(=O)N[C@@H](Cc1c[nH]cn1)C(=O)N2 [ID13] (HELM PEPTIDE1{A.T.C.D.L.L.S.P.F.K.V.G.H.A.A.C.A.A.H.C.I.A.R.G.K.R.G.G.W.C.D.G.R.A.V.C.N.C.R.K}$PEPTIDE1,PEPTIDE1,3:R3-30:R3|PEPTIDE1,PEPTIDE1,16:R3-36:R3|PEPTIDE1,PEPTIDE1,20:R3-38:R3$$$V2.0; N-terminus and C-terminus assumed)
[1]; 1 × MIC
  decrease of CFU counts within 1 h: 2.16 log10 CFU/mL
[1]; 2 × MIC
  decrease of CFU counts within 1 h: 3.14 log10 CFU/mL
[1]; 4 × MIC
  decrease of CFU counts within 1 h: 3.4 log10 CFU/mL
[2]
  activity against Gram-negative bacteria: no activity
[3]
  peptide/gDNA mass ratio at which gDNA was completely blocked: 5
  peptide/gDNA mass ratio at which migration of gDNA began to be retarded: 1
[4]; Table 1, – = no activity
  MIC: 4
[4]; microtiter, 37°C, 16∼20 h, triplicate
  MIC: 0.95 µM (≈ 3.99 µg/mL)
[5]
  cell viability: 71.4%
